biological target: T1, human LPA1 (Homo sapiens, UniProt Q92633); experiment: LPA1 functional antagonist assay (calcium flux); type: cell-based; conditions: CHO cells overexpressing human LPA1; calcium flux induced by 10 nM LPA; read-out: hLPA1 IC50
T1 construct: expressed in transfected cells; host or cells: Chinese hamster ovary (CHO) cells
Procedure: The effectiveness of compounds of the present invention as LPA1 inhibitors can be determined in an LPA1 functional antagonist assay as follows:
The cells were then equilibrated to room temperature for 30 minutes before the assay. […] IC50 values were determined by fitting data to a 4-parameter logistic equation (GraphPad Prism, San Diego Calif.).

T1 sequence (Q92633 whole entry): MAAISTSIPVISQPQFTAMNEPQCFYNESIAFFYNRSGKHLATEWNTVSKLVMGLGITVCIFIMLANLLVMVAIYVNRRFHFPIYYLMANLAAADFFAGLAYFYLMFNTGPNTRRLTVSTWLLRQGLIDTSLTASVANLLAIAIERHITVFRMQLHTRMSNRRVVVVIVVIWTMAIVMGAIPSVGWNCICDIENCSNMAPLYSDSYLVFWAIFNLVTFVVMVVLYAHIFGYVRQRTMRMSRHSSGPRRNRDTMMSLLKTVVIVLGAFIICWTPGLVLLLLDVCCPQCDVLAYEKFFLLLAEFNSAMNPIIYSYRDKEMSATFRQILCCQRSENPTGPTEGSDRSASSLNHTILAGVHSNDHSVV

Row | SMILES | IC50 [nM]
1 | CCCCOC(=O)NCc1c(-c2ccc(O[C@H]3CCC[C@H](C(=O)O)C3)c(C)n2)nnn1C [Example 3, (1S,3S)-3-((6-(5-(((butoxycarbonyl)amino)methyl)-1-methyl-1H-1,2,3-triazol-4-yl)-2-methylpyridin-3-yl)oxy)cyclohexane-1-carboxylic acid] | 14
2 | CCCCOC(=O)NCc1c(-c2ccc(O[C@H]3CCC[C@H](C(=O)O)C3)cn2)nnn1C [Example 5, (1S,3S)-3-((6-(5-(((butoxycarbonyl)amino)methyl)-1-methyl-1H-1,2,3-triazol-4-yl)pyridin-3-yl)oxy)cyclohexane-1-carboxylic acid] | 96
3 | Cn1nnc(-c2ccc(O[C@H]3CCC[C@H](C(=O)O)C3)cn2)c1CNC(=O)OC1CCCC1 [Example 6, (1S,3S)-3-((6-(5-((((cyclopentyloxy)carbonyl)amino)methyl)-1-methyl-1H-1,2,3-triazol-4-yl)pyridin-3-yl)oxy)cyclohexane-1-carboxylic acid] | 84
4 | Cc1nc(-c2nnn(C)c2CNC(=O)OCC2CC2)ccc1O[C@H]1CCC[C@H](C(=O)O)C1 [Example 7, (1S,3S)-3-((6-(5-((((cyclopropylmethoxy)carbonyl)amino)methyl)-1-methyl-1H-1,2,3-triazol-4-yl)-2-methylpyridin-3-yl)oxy)cyclohexane-1-carboxylic acid] | 47
5 | Cn1nnc(-c2ccc(O[C@H]3CCC[C@H](C(=O)O)C3)cn2)c1CNC(=O)OCCc1ccccc1 [Example 9, (1S,3S)-3-((6-(1-methyl-5-(((phenethoxycarbonyl)amino)methyl)-1H-1,2,3-triazol-4-yl)pyridin-3-yl)oxy)cyclohexane-1-carboxylic acid] | 672
6 | C[C@@H](OC(=O)NCc1c(-c2ccc(O[C@H]3CCC[C@H](C(=O)O)C3)cn2)nnn1C)c1ccccc1 [Example 10, (1S,3S)-3-((6-(1-methyl-5-(((((R)-1-phenylethoxy)carbonyl)amino)methyl)-1H-1,2,3-triazol-4-yl)pyridin-3-yl)oxy)cyclohexane-1-carboxylic acid] | 104
7 | CCCCCCOC(=O)NCc1c(-c2ccc(O[C@H]3CCC[C@H](C(=O)O)C3)cn2)nnn1C [Example 13, (1S,3S)-3-((6-(5-((((hexyloxy)carbonyl)amino)methyl)-1-methyl-1H-1,2,3-triazol-4-yl)pyridin-3-yl)oxy)cyclohexane-1-carboxylic acid] | 428
8 | CCCCOC(=O)N(C)Cc1c(-c2ccc(O[C@H]3CCC[C@H](C(=O)O)C3)cn2)nnn1C [Example 14, (1S,3S)-3-((6-(5-(((butoxycarbonyl)(methyl)amino)methyl)-1-methyl-1H-1,2,3-triazol-4-yl)pyridin-3-yl)oxy)cyclohexane-1-carboxylic acid] | 1020
9 | CCCCCOC(=O)N(C)Cc1c(-c2ccc(O[C@H]3CCC[C@H](C(=O)O)C3)cn2)nnn1C [Example 15, (1S,3S)-3-((6-(1-methyl-5-((methyl((pentyloxy)carbonyl)amino)methyl)-1H-1,2,3-triazol-4-yl)pyridin-3-yl)oxy)cyclohexane-1-carboxylic acid] | 130
10 | Cc1nc(-c2nnn(C)c2CNC(=O)OCCc2ccccc2)ccc1O[C@H]1CCC[C@H](C(=O)O)C1 [Example 16, (1S,3S)-3-((2-methyl-6-(1-methyl-5-(((phenethoxycarbonyl)amino)methyl)-1H-1,2,3-triazol-4-yl)pyridin-3-yl)oxy)cyclohexane-1-carboxylic acid] | 32
11 | COCCOC(=O)NCc1c(-c2ccc(O[C@H]3CCC[C@H](C(=O)O)C3)c(C)n2)nnn1C [Example 21, (1S,3S)-3-((6-(5-((((2-methoxyethoxy)carbonyl)amino)methyl)-1-methyl-1H-1,2,3-triazol-4-yl)-2-methylpyridin-3-yl)oxy)cyclohexane-1-carboxylic acid] | 1620
12 | Cc1nc(-c2nnn(C)c2CNC(=O)OCC(C)(C)C)ccc1O[C@H]1CCC[C@H](C(=O)O)C1 [Example 22, (1S,3S)-3-((2-methyl-6-(1-methyl-5-((((neopentyloxy)carbonyl)amino)methyl)-1H-1,2,3-triazol-4-yl)pyridin-3-yl)oxy)cyclohexane-1-carboxylic acid] | 35
13 | CCCOC(=O)NCc1c(-c2ccc(O[C@H]3CCC[C@H](C(=O)O)C3)c(C)n2)nnn1C [Example 24, (1S,3S)-3-((2-methyl-6-(1-methyl-5-(((propoxycarbonyl)amino)methyl)-1H-1,2,3-triazol-4-yl)pyridin-3-yl)oxy)cyclohexane-1-carboxylic acid] | 160
14 | Cc1nc(-c2nnn(C)c2CNC(=O)OCC(C)C)ccc1O[C@H]1CCC[C@H](C(=O)O)C1 [Example 25, (1S,3S)-3-((6-(5-(((isobutoxycarbonyl)amino)methyl)-1-methyl-1H-1,2,3-triazol-4-yl)-2-methyl-pyridin-3-yl)oxy)cyclohexane-1-carboxylic acid] | 51
15 | Cn1nnc(-c2ccc(O[C@H]3CCC[C@H](C(=O)O)C3)cn2)c1CNC(=O)OCC(C)(C)C [Example 26, (1S,3S)-3-((6-(1-methyl-5-((((neopentyloxy)carbonyl)amino)methyl)-1H-1,2,3-triazol-4-yl)pyridin-3-yl)oxy)cyclohexane-1-carboxylic acid] | 44
16 | CC(C)COC(=O)NCc1c(-c2ccc(O[C@H]3CCC[C@H](C(=O)O)C3)cn2)nnn1C [Example 29, (1S,3S)-3-((6-(5-(((isobutoxycarbonyl)amino)methyl)-1-methyl-1H-1,2,3-triazol-4-yl)pyridin-3-yl)oxy)cyclohexane-1-carboxylic acid] | 179
17 | Cc1nc(-c2nnn(C)c2CNC(=O)OC(C)(C)C)ccc1O[C@H]1CCC[C@H](C(=O)O)C1 [Example 30, (1S,3S)-3-((6-(5-(((tert-butoxycarbonyl)amino)methyl)-1-methyl-1H-1,2,3-triazol-4-yl)-2-methylpyridin-3-yl)oxy)cyclohexane-1-carboxylic acid] | 120
18 | Cc1nc(-c2nnn(C)c2CN(C)C(=O)OCc2ccccc2)ccc1O[C@H]1CCC[C@H](C(=O)O)C1 [Example 35, (1S,3S)-3-((6-(5-((((benzyloxy)carbonyl)(methyl)amino)methyl)-1-methyl-1H-1,2,3-triazol-4-yl)-2-methylpyridin-3-yl)oxy)cyclohexanecarboxylic acid] | 56

Further molecules by falling IC50, results first:

Row | IC50 [nM] | SMILES
19 | 23 | Cn1nnc(-c2ccc(O[C@H]3CCC[C@H](C(=O)O)C3)cn2)c1CNC(=O)OCc1cccc(F)c1 [Example 12, (1S,3S)-3-((6-(5-(((((3-fluorobenzyl)oxy)carbonyl)amino)methyl)-1-methyl-1H-1,2,3-triazol-4-yl)pyridin-3-yl)oxy)cyclohexane-1-carboxylic acid]
20 | 18 | Cc1nc(-c2nnn(C)c2CNC(=O)OC2CCCC2)ccc1O[C@H]1CCC[C@H](C(=O)O)C1 [Example 28]
21 | 16 | CCCCCOC(=O)NCc1c(-c2ccc(O[C@H]3CCC[C@H](C(=O)O)C3)cn2)nnn1C [Example 27, (1S,3S)-3-((6-(1-methyl-5-((((pentyloxy)carbonyl)amino)methyl)-1H-1,2,3-triazol-4-yl)pyridin-3-yl)oxy)cyclohexane-1-carboxylic acid]
22 | 12 | Cc1nc(-c2nnn(C)c2CNC(=O)O[C@H](C)c2ccccc2)ccc1O[C@H]1CCC[C@H](C(=O)O)C1 [Example 18, (1S,3S)-3-((2-methyl-6-(1-methyl-5-(((((R)-1-phenylethoxy)carbonyl)amino)methyl)-1H-1,2,3-triazol-4-yl)pyridin-3-yl)oxy)cyclohexane-1-carboxylic acid]
23 | 11 | Cc1nc(-c2nnn(C)c2CNC(=O)OCC2CCC2)ccc1O[C@H]1CCC[C@H](C(=O)O)C1 [Example 33, (1S,3S)-3-((6-(5-((((cyclobutylmethoxy)carbonyl)amino)methyl)-1-methyl-1H-1,2,3-triazol-4-yl)-2-methylpyridin-3-yl)oxy)cyclohexane-1-carboxylic acid]
24 | 7 | Cc1nc(-c2nnn(C)c2CNC(=O)OCc2cc(F)ccc2F)ccc1O[C@H]1CCC[C@H](C(=O)O)C1 [Example 17, (1S,3S)-3-((6-(5-(((((2,5-difluorobenzyl)oxy)carbonyl)amino)methyl)-1-methyl-1H-1,2,3-triazol-4-yl)-2-methylpyridin-3-yl)oxy)cyclohexane-1-carboxylic acid]
25 | 6 | Cc1nc(-c2nnn(C)c2CNC(=O)OCc2cccc(F)c2)ccc1O[C@H]1CCC[C@H](C(=O)O)C1 [Example 11, (1S,3S)-3-((6-(5-(((((3-fluorobenzyl)oxy)carbonyl)amino)methyl)-1-methyl-1H-1,2,3-triazol-4-yl)-2-methylpyridin-3-yl)oxy)cyclohexane-1-carboxylic acid]
26 | 5 | Cc1nc(-c2nnn(C)c2CNC(=O)OCc2cc(F)cc(F)c2)ccc1O[C@H]1CCC[C@H](C(=O)O)C1 [Example 8, (1S,3S)-3-((6-(5-(((((3,5-difluorobenzyl)oxy)carbonyl)amino)methyl)-1-methyl-1H-1,2,3-triazol-4-yl)-2-methylpyridin-3-yl)oxy)cyclohexane-1-carboxylic acid]
27 | 4 | Cc1cccc(COC(=O)NCc2c(-c3ccc(O[C@H]4CCC[C@H](C(=O)O)C4)c(C)n3)nnn2C)c1 [Example 19, (1S,3S)-3-((2-methyl-6-(1-methyl-5-(((((3-methylbenzyl)oxy)carbonyl)amino)methyl)-1H-1,2,3-triazol-4-yl)pyridin-3-yl)oxy)cyclohexane-1-carboxylic acid]
28 | 3 | CCCCCCOC(=O)NCc1c(-c2ccc(O[C@H]3CCC[C@H](C(=O)O)C3)c(C)n2)nnn1C [Example 20, (1S,3S)-3-((6-(5-((((hexyloxy)carbonyl)amino)methyl)-1-methyl-1H-1,2,3-triazol-4-yl)-2-methyl-pyridin-3-yl)oxy)cyclohexane-1-carboxylic acid]
29 | 3 | CCCCCOC(=O)NCc1c(-c2ccc(O[C@H]3CCC[C@H](C(=O)O)C3)c(C)n2)nnn1C [Example 23]
